ChEMBL document CHEMBL1137107, “Design, synthesis, and evaluation of hexahydrobenz[f]isoquinolines as a novel class of dopamine 3 receptor ligands” (Bioorg Med Chem Lett, 2004)

Key:
[1] = Binding affinity towards D2-like dopamine receptor in caudate-putamen membranes of sprague-dawley rat brain by using [3H]spiperone as radioligand; type: cell membranes, Membrane
Rattus norvegicus [2] = species: Rattus norvegicus; assay: Ratio of binding affinity for D1-like receptor to that of dopamine D3 receptor
[3] = Binding affinity towards D1-like dopamine receptor in caudate-putamen membranes of sprague-dawley rat brain by using [3H]-SCH- 23390 as radioligand; type: cell membranes, Membrane
D(3) dopamine receptor = D(3) dopamine receptor (Rattus norvegicus, UniProt P19020)
Sequence of D(3) dopamine receptor (P19020 whole entry): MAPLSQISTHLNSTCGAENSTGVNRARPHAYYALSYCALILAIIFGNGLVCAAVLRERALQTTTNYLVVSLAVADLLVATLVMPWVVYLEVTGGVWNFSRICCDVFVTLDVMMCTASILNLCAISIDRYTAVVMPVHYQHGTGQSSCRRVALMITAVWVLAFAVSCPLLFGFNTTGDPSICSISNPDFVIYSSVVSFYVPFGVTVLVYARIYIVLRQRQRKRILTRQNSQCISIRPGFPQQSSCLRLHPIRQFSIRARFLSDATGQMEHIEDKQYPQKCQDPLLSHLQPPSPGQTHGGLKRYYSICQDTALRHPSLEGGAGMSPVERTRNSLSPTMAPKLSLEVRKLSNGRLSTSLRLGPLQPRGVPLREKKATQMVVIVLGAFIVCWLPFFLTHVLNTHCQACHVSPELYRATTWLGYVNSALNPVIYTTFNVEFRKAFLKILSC
Description: Binding affinity towards dopamine D3 receptor in ventral striatal membranes of sprague-dawley rat brain by using [3H]-PD 128907 as radioligand

Rattus norvegicus [4] = species: Rattus norvegicus; assay: Ratio of binding affinity for D2-like receptor to that of dopamine D3 receptor

| SMILES | Ki [1] [nM] | Selectivity (Rattus norvegicus [2]) | Ki [3] [nM] | Ki (D(3) dopamine receptor) [nM] | Selectivity (Rattus norvegicus [4]) |
| --- | --- | --- | --- | --- | --- |
| CCCCN1CCC2=C(CCc3ccccc32)C1 | 122 | 62 | 1570 | 25 | 5 |
| CCN1CCC2=C(CCc3ccccc32)C1 |  |  |  | 183 |  |
| CCCN1CCC2=C(CCc3ccccc32)C1 | 84 | 18 | 1120 | 63 | 1 |
| CCCCCN1CCC2=C(CCc3ccccc32)C1 | 46 | 28 | 1060 | 38 | 1 |
| O=C(NCCCCN1CCC2=C(CCc3ccccc32)C1)c1ccc2ccccc2c1 | 811 | 163 | 993 | 6.1 | 133 |
| c1ccc(CCN2CCC3=C(CCc4ccccc43)C2)cc1 | 3290 | 10 | 819 | 84 | 39 |
| COc1ccccc1N1CCN(CCCCNC(=O)c2ccc3ccccc3c2)CC1 [BP-897] | 162 |  | 636 |  |  |
| c1ccc(CCCN2CCC3=C(CCc4ccccc43)C2)cc1 |  |  |  | 103 |  |
| c1ccc(CCCCN2CCC3=C(CCc4ccccc43)C2)cc1 | 59 | 9 | 696 | 74 | 1 |
